{"source": "ChEMBL document CHEMBL5528017", "about": "“Design and synthesis of dual BRD4/Src inhibitors for treatment of triple-negative breast cancer” (Eur J Med Chem, 2024)", "key": {"MCF7": {"test_system": "MCF7", "assay": "Antiproliferative activity against human MCF7 cells assessed as inhibition of cell viability incubated for 3 to 4 days by CCK8 assay", "format": "functional, cell-based", "settings": "time 3-4 day"}, "A549": {"test_system": "A549", "assay": "Antiproliferative activity against human A549 cells assessed as inhibition of cell viability incubated for 3 to 4 days by CCK8 assay", "format": "functional, cell-based", "settings": "time 3-4 day"}, "CWR22R": {"test_system": "CWR22R", "assay": "Antiproliferative activity against human 22Rv1 cells assessed as inhibition of cell viability incubated for 3 to 4 days by CCK8 assay", "format": "functional, cell-based", "settings": "time 3-4 day"}, "MDA-MB-231 [1]": {"test_system": "MDA-MB-231", "assay": "Induction of cell cycle arrest in human MDA-MB-231 cells assessed as proportion of cells at G1 phase at 0.1 uM incubated for 24 hrs by propidium iodide staining based flow cytometry (reference value: 59.5%)", "format": "functional"}, "MDA-MB-231 [2]": {"test_system": "MDA-MB-231", "assay": "Induction of cell cycle arrest in human MDA-MB-231 cells assessed as proportion of cells at S phase at 0.1 uM incubated for 24 hrs by propidium iodide staining based flow cytometry (reference value: 28.2%)", "format": "functional"}, "MDA-MB-231 [3]": {"test_system": "MDA-MB-231", "assay": "Induction of cell cycle arrest in human MDA-MB-231 cells assessed as proportion of cells at G2 phase at 0.1 uM incubated for 24 hrs by propidium iodide staining based flow cytometry (reference value: 11.6%)", "format": "functional"}, "MDA-MB-231 [4]": {"test_system": "MDA-MB-231", "assay": "Induction of cell cycle arrest in human MDA-MB-231 cells assessed as proportion of cells at G1 phase at 0.2 uM incubated for 24 hrs by propidium iodide staining based flow cytometry (reference value: 59.5%)", "format": "functional"}, "MDA-MB-231 [5]": {"test_system": "MDA-MB-231", "assay": "Induction of cell cycle arrest in human MDA-MB-231 cells assessed as proportion of cells at S phase at 0.2 uM incubated for 24 hrs by propidium iodide staining based flow cytometry (reference value: 28.2%)", "format": "functional"}, "MDA-MB-231 [6]": {"test_system": "MDA-MB-231", "assay": "Induction of cell cycle arrest in human MDA-MB-231 cells assessed as proportion of cells at G2 phase at 0.2 uM incubated for 24 hrs by propidium iodide staining based flow cytometry (reference value: 11.6%)", "format": "functional"}, "MDA-MB-231 [7]": {"test_system": "MDA-MB-231", "assay": "Induction of cell cycle arrest in human MDA-MB-231 cells assessed as downregulation of cyclin B1 expression at 0.1 to 0.2 uM incubated for 24 hrs by western blot analysis", "format": "functional, cell-based", "settings": "dose 0.1-0.2 µM"}, "MDA-MB-231 [8]": {"test_system": "MDA-MB-231", "assay": "Induction of cell cycle arrest in human MDA-MB-231 cells assessed as increase in p21 expression at 0.1 to 0.2 uM incubated for 24 hrs by western blot analysis", "format": "functional, cell-based", "settings": "dose 0.1-0.2 µM"}, "MDA-MB-231 [9]": {"test_system": "MDA-MB-231", "assay": "Induction of cell cycle arrest in human MDA-MB-231 cells assessed as decrease in cyclin E1 expression at 0.1 to 0.2 uM incubated for 24 hrs by western blot analysis", "format": "functional, cell-based", "settings": "dose 0.1-0.2 µM"}, "MDA-MB-231 [10]": {"test_system": "MDA-MB-231", "assay": "Induction of apoptosis in human MDA-MB-231 cells assessed as proportion of viable cells at 0.5 uM incubated for 36 hrs by AnnexinV-FITC/PI staining based flow cytometry (reference value: 93.6%)", "format": "functional"}, "MDA-MB-231 [11]": {"test_system": "MDA-MB-231", "assay": "Induction of apoptosis in human MDA-MB-231 cells assessed as proportion of early apoptotic cells at 0.5 uM incubated for 36 hrs by AnnexinV-FITC/PI staining based flow cytometry (reference value: 5.05%)", "format": "functional"}, "MDA-MB-231 [12]": {"test_system": "MDA-MB-231", "assay": "Induction of apoptosis in human MDA-MB-231 cells assessed as proportion of late apoptotic cells at 0.5 uM incubated for 36 hrs by AnnexinV-FITC/PI staining based flow cytometry (reference value: […]%)", "format": "functional"}, "MDA-MB-231 [13]": {"test_system": "MDA-MB-231", "assay": "Induction of apoptosis in human MDA-MB-231 cells assessed as proportion of necrotic cells at 0.5 uM incubated for 36 hrs by AnnexinV-FITC/PI staining based flow cytometry (reference value: 0%)", "format": "functional"}, "MDA-MB-231 [14]": {"test_system": "MDA-MB-231", "assay": "Induction of apoptosis in human MDA-MB-231 cells assessed as proportion of viable cells at 1 uM incubated for 36 hrs by AnnexinV-FITC/PI staining based flow cytometry (reference value: 93.6%)", "format": "functional"}, "MDA-MB-231 [15]": {"test_system": "MDA-MB-231", "assay": "Induction of apoptosis in human MDA-MB-231 cells assessed as proportion of early apoptotic cells at 1 uM incubated for 36 hrs by AnnexinV-FITC/PI staining based flow cytometry (reference value: 5.05%)", "format": "functional"}, "MDA-MB-231 [16]": {"test_system": "MDA-MB-231", "assay": "Induction of apoptosis in human MDA-MB-231 cells assessed as proportion of late apoptotic cells at 1 uM incubated for 36 hrs by AnnexinV-FITC/PI staining based flow cytometry (reference value: […]%)", "format": "functional"}, "MDA-MB-231 [17]": {"test_system": "MDA-MB-231", "assay": "Induction of apoptosis in human MDA-MB-231 cells assessed as proportion of necrotic cells at 1 uM incubated for 36 hrs by AnnexinV-FITC/PI staining based flow cytometry (reference value: 0%)", "format": "functional"}, "MDA-MB-231 [18]": {"test_system": "MDA-MB-231", "assay": "Induction of apoptosis in human MDA-MB-231 cells assessed as increase in cleaved PARP-1 expression at 0.5 uM incubated for 36 hrs by western blot analysis", "format": "functional, cell-based"}, "MDA-MB-231 [19]": {"test_system": "MDA-MB-231", "assay": "Induction of apoptosis in human MDA-MB-231 cells assessed as increase in cleaved caspase-9 expression at 0.5 uM incubated for 36 hrs by western blot analysis", "format": "functional, cell-based"}, "MDA-MB-231 [20]": {"test_system": "MDA-MB-231", "assay": "Induction of apoptosis in human MDA-MB-231 cells assessed as increase in cleaved caspase-3 expression at 0.5 uM incubated for 36 hrs by western blot analysis", "format": "functional, cell-based"}, "MDA-MB-231 [21]": {"test_system": "MDA-MB-231", "assay": "Antitumor activity against human MDA-MB-231 cells xenografted in NOD-SCID mouse assessed as inhibition of tumor growth at 20 mg/kg, ip qd for 10 days", "format": "functional", "settings": "MDA-MB-231, 240 h, time 10 day, read-out: TGI"}, "MDA-MB-231 [22]": {"test_system": "MDA-MB-231", "assay": "Antitumor activity against human MDA-MB-231 cells xenografted in NOD-SCID mouse assessed as inhibition of tumor growth at 15 mg/kg, ip administered 5 days per week for 27 days", "format": "functional", "settings": "MDA-MB-231, 648 h, time 27 day, read-out: TGI"}, "MDA-MB-231 [23]": {"test_system": "MDA-MB-231", "assay": "Antitumor activity against human MDA-MB-231 cells xenografted in NOD-SCID mouse assessed as reduction in tumor weight at 15 mg/kg, ip administered 5 days per week for 27 days", "format": "functional", "settings": "MDA-MB-231, 648 h, time 27 day"}, "[24]": {"assay": "Toxicity against NOD-SCID mouse xenografted with human MDA-MB-231 cells assessed as effect on body weight at 15 mg/kg, ip administered 5 days per week for 27 days", "format": "organism-based", "settings": "in vivo, 648 h, time 27 day"}, "[25]": {"assay": "Toxicity against NOD-SCID mouse xenografted with human MDA-MB-231 cells assessed as adverse effects at 15 mg/kg, ip administered 5 days per week for 27 days", "format": "organism-based", "settings": "in vivo, 648 h, time 27 day"}, "MDA-MB-231 [26]": {"test_system": "MDA-MB-231", "assay": "cells", "settings": "Homo sapiens, MDA-MB-231, 72 h", "description": "Antiproliferative activity against human MDA-MB-231 cells assessed as inhibition of cell viability incubated for 72 hrs by CCK8 assay"}}, "note": "Activity calls are given as the source filed them. The rule behind the calls is not given here."}
{"smiles": "Cc1nc(Nc2ncc(C(=O)Nc3c(C)cccc3Cl)s2)cc(N2CCN(CCOC(=O)C(C)NC(=O)C[C@@H]3N=C(c4ccc(Cl)cc4)c4c(sc(C)c4C)-n4c(C)nnc43)CC2)n1", "note": "(some centres undefined)", "values": [{"measurement": "Activity", "setting": "MCF7", "result": "Active"}, {"measurement": "Activity", "setting": "A549", "result": "Active"}, {"measurement": "Activity", "setting": "CWR22R", "result": "Active"}, {"measurement": "Activity", "setting": "MDA-MB-231 [1]", "result": 80.4, "unit": "%"}, {"measurement": "Activity", "setting": "MDA-MB-231 [2]", "result": 12.8, "unit": "%"}, {"measurement": "Activity", "setting": "MDA-MB-231 [3]", "result": 6.47, "unit": "%"}, {"measurement": "Activity", "setting": "MDA-MB-231 [4]", "result": 84.4, "unit": "%"}, {"measurement": "Activity", "setting": "MDA-MB-231 [5]", "result": 10.1, "unit": "%"}, {"measurement": "Activity", "setting": "MDA-MB-231 [6]", "result": 4.96, "unit": "%"}, {"measurement": "Activity", "setting": "MDA-MB-231 [7]", "result": "Active"}, {"measurement": "Activity", "setting": "MDA-MB-231 [8]", "result": "Active"}, {"measurement": "Activity", "setting": "MDA-MB-231 [9]", "result": "Active"}, {"measurement": "Activity", "setting": "MDA-MB-231 [10]", "result": 71.1, "unit": "%"}, {"measurement": "Activity", "setting": "MDA-MB-231 [11]", "result": 22.9, "unit": "%"}, {"measurement": "Activity", "setting": "MDA-MB-231 [12]", "result": 6.01, "unit": "%"}, {"measurement": "Activity", "setting": "MDA-MB-231 [13]", "result": 0, "unit": "%"}, {"measurement": "Activity", "setting": "MDA-MB-231 [14]", "result": 76.3, "unit": "%"}, {"measurement": "Activity", "setting": "MDA-MB-231 [15]", "result": 16.5, "unit": "%"}, {"measurement": "Activity", "setting": "MDA-MB-231 [16]", "result": 7.14, "unit": "%"}, {"measurement": "Activity", "setting": "MDA-MB-231 [17]", "result": 0, "unit": "%"}, {"measurement": "Activity", "setting": "MDA-MB-231 [18]", "result": "Active"}, {"measurement": "Activity", "setting": "MDA-MB-231 [19]", "result": "Active"}, {"measurement": "Activity", "setting": "MDA-MB-231 [20]", "result": "Active"}, {"measurement": "inhibition in vivo at 20 mg/kg", "setting": "MDA-MB-231 [21]", "result": 75.4, "unit": "%"}, {"measurement": "inhibition in vivo at 15 mg/kg", "setting": "MDA-MB-231 [22]", "result": 70.7, "unit": "%"}, {"measurement": "inhibition in vivo at 15 mg/kg", "setting": "MDA-MB-231 [23]", "result": 66.1, "unit": "%"}, {"measurement": "Activity", "setting": "[24]", "result": "Non-Toxic"}, {"measurement": "Activity", "setting": "[25]", "result": "Non-Toxic"}, {"measurement": "IC50", "setting": "MDA-MB-231 [26]", "result": 34, "unit": "nM"}]}
